Values quoted from earlier work in patent US20020004528A1, “Method for the treatment of insomnia” (priority 1998, published 2002).

Settings: one study mentioned in U.S. Pat. No. 5,510,381 (use of gabapentin to treat mania)

Substance: 1-(aminomethyl)-cyclohexane acetic acid [gabapentin]
- effect on delta-wave (deep) sleep: enhance delta-wave (deep) sleep
